# Measured values taken from US20210330611A1, “THERAPY FOR NEUROLOGICAL DISEASES/DISORDERS” (priority 2020, published 2021).
# Values joined by “and” are separate entries in the source; they are usually repeats but may differ in a detail not shown here. Identical values can stand only once. Counter-ions that a name gives are not always drawn. Like-named read-outs stand apart in the source and are kept apart here.
# Experiments:
# [1] = tested on: primary rat microglia; test: Cell toxicity (dead cells, size <150 μm2) in coated fibrin (cFib) assay; conditions: primary microglia HTS;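 further: share of dead cells sized under 150 µm2 at 10 µM in fibrin-stimulated microglia HTS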
# [2] = tested on: fibrin-induced microglia activation; test: Image-based assay of fibrin-induced microglia activation (HTS and dose response); assay type: cell-based, rat; conditions: for inhibition at 10 µM / IC50: Rattus norvegicus, Microglia; for inhibition at 10 µM: read-out: Fibrin % inhibition
# [3] = tested on: fibrin- and LPS-induced microglia activation; test: cells; assay type: cell-based, rat; conditions: for inhibition at 10 µM: Rattus norvegicus, Microglia
# [4] = tested on: primary rat microglia
# [5] = tested on: LPS-induced microglia activation; test: Image-based assay of LPS-induced microglia activation (HTS and dose response); assay type: cell-based, rat
# [6] = fibrin assay, dead cells (size <150 μm2)
# [7] = quadrant by fibrin and LPS inhibition, HTS at 10 μM
# [8] = primary microglia HTS, fibrin stimulation, increased cell size (>800 μm^2) as marker of activation
# [9] = Rattus norvegicus, Microglia, 48 h, primary microglia HTS, LPS stimulation; increased cell size (>800 μm^2) as marker of activation; read-out: LPS % inhibition
# [10] = quadrant by fibrin and LPS inhibition in HTS of 1907 compounds
# [11] = Rattus norvegicus, Microglia, 48 h, read-out: LPS % inhibition
# [12] = primary microglia HTS, LPS stimulation; increased cell size (>800 μm^2) as marker of activation
# [13] = fibrin stimulation, cell size <150 μm2 as marker of toxicity
# [14] = classification by fibrin and LPS inhibition in HTS
# [15] = primary microglia HTS, fibrin stimulation, cell size >800 μm2 as marker of activation
# [16] = Rattus norvegicus, Microglia, 48 h; read-out: LPS % inhibition
SMILES,LPS % cell toxicity ([4]; rat) [%],inhibition at 10 µM [2] [%],"inhibition at 10 µM [5, 11] [%]",Quadrant (FIG. 5b) [3],"Quadrant (FIG. 5b) [3, 14]",further results
COc1ccc(CC2c3cc(OC)c(OC)cc3CC[N+]2(C)CCC(=O)OCCCCCOC(=O)CC[N+]2(C)CCc3cc(OC)c(OC)cc3C2Cc2ccc(OC)c(OC)c2)cc1OC (stereo not shown) [Atracurium Besylate],0,–,–,–,–,"Fibrin % cell toxicity [1, 6]: 0% and 1%; Fibrin % inhibition ([2]; primary microglia HTS, fibrin stimulation, compounds at 10 μM, 10 µM): −3% and 2%; Quadrant (FIG. 5b) [3, 7]: Q4"
C[C@H]1[C@H](NC(=O)/C(=N\OC(C)(C)C(=O)O)c2csc(N)n2)C(=O)N1S(=O)(=O)O [Aztreonam],0,–,–,–,–,"Fibrin % cell toxicity [1, 6]: 1% and 0%; Quadrant (FIG. 5b) [3, 7]: Q4"
COCCOC(=O)C1=C(C)NC(C)=C(C(=O)OC(C)C)C1c1cccc([N+](=O)[O-])c1 (stereo not shown) [Nimodipine],0,–,–,–,–,"inhibition at 10 µM [2, 8]: -6%; inhibition at 10 µM [5, 9]: 2%; Quadrant (FIG. 5b) [3, 10]: Q4"
CCCCCCCCCCCCCCCC(=O)NCCO [Palmidrol],0,-40,7,Q4,–,–
CC(=O)O[C@H]1C[C@@H]2CC[C@@H]3[C@H](CC[C@@]4(C)[C@H]3C[C@H]([N+]3(C)CCCCC3)[C@@H]4OC(C)=O)[C@@]2(C)C[C@@H]1[N+]1(C)CCCCC1 [Pancuronium Bromide],0,–,–,–,–,"Fibrin % inhibition [2, 8]: 9%; LPS % inhibition [5, 12]: 11%; Quadrant (FIG. 5b) [3, 10]: Q4"
CC(=O)O[C@H]1C[C@@H]2CC[C@@H]3[C@H](CC[C@@]4(C)[C@H]3C[C@H]([N+]3(C)CCCCC3)[C@@H]4OC(C)=O)[C@@]2(C)C[C@@H]1[N+]1(C)CCCCC1 [Pancuronium],0,–,–,–,–,"Fibrin % inhibition [2, 8]: −4%; LPS % inhibition [5, 12]: 1%; Quadrant (FIG. 5b) [3, 10]: Q4"
CC(C)(CO)[C@@H](O)C(=O)NCCC(=O)O [Pantothenic Acid],1,–,–,–,–,"inhibition at 10 µM [2, 8]: 7%; inhibition at 10 µM [5, 9]: 5%; Quadrant (FIG. 5b) [3, 10]: Q4"
CSCC[C@H](NC(=O)[C@H](Cc1c[nH]c2ccccc12)NC(=O)CCNC(=O)OC(C)(C)C)C(=O)N[C@@H](CC(=O)O)C(=O)N[C@@H](Cc1ccccc1)C(N)=O [Pentagastrin],–,–,–,–,–,"Fibrin % cell toxicity [1, 13]: 1%; LPS % cell toxicity [4]: 1%"
O=C(O)Cc1ccccc1 [Phenylacetic acid],0,–,–,–,Q4,"Fibrin % cell toxicity [1, 13]: 1%"
CCN1CCN(C(=O)N[C@@H](C(=O)N[C@@H]2C(=O)N3[C@@H]2SC(C)(C)[C@@H]3C(=O)O)c2ccccc2)C(=O)C1=O [Piperacillin Sodium],0,–,–,–,Q4,"inhibition at 10 µM [2, 15]: -25%; inhibition at 10 µM [5, 16]: 17%"
CCN1CCN(C(=O)N[C@@H](C(=O)N[C@@H]2C(=O)N3[C@@H]2SC(C)(C)[C@@H]3C(=O)O)c2ccccc2)C(=O)C1=O [Piperacillin],2,–,–,–,–,"inhibition at 10 µM ([2]; primary microglia HTS, fibrin stimulation, compounds at 10 μM): 103%; inhibition at 10 µM ([5]; Rattus norvegicus, Microglia, primary microglia HTS, LPS stimulation, compounds at 10 μM; read-out: LPS % inhibition): 80%; Quadrant (FIG. 5b) [3, 7]: Q2"
CC(=O)Oc1cc2c(s1)CCN(C(C(=O)C1CC1)c1ccccc1F)C2 (stereo not shown) [Prasugrel],1,–,–,–,Q4,"inhibition at 10 µM [2, 15]: 15%; inhibition at 10 µM [5, 16]: 22%"
CC(C)c1cccc(C(C)C)c1O [Propofol],0,-18,11,Q4,–,–
CC(C)NCC(O)COc1cccc2ccccc12 (stereo not shown) [Propranolol],0,–,2,Q4,–,Fibrin % inhibition [2]: −30%
OCCOCCN1CCN(C2=Nc3ccccc3Sc3ccccc32)CC1 [Quetiapine],0,-2,13,Q4,–,–
CCC1NC(=O)c2cc(S(N)(=O)=O)c(Cl)cc2N1 (stereo not shown) [Quinethazone],1,–,–,–,Q4,"inhibition at 10 µM [2, 15]: 15%; inhibition at 10 µM [5, 16]: 17%"
CNCC(O)c1ccc(O)c(O)c1 (stereo not shown) [Racepinephrine],0,27,29,Q4,–,–
CC(Cc1ccccc1)(NC(=O)CN)c1ccccc1 (stereo not shown) [Remacemide Hydrochloride],0,-21,13,Q4,–,–
"NC(=O)c1ncn([C@@H]2O[C@H](CO)[C@@H](O)[C@H]2O)n1 [Ribavirin, reference compound]",3,102,107,Q2,–,"IC50 ([2]; 48 h, read-out: Fibrin IC50): 1 µM; IC50 ([2]; read-out: Fibrin IC50 (uM)): 1 µM; IC50 ([2]; read-out: Fibrin IC50 (uM) (Suppl. Table 7)): 1 µM; IC50 ([5]; Rattus norvegicus, Microglia, 48 h, read-out: LPS IC50): 2 µM; IC50 ([5]; Rattus norvegicus, Microglia, read-out: LPS IC50 (uM)): 2 µM; IC50 ([5]; Rattus norvegicus, Microglia, read-out: LPS IC50 (uM) (Suppl. Table 7)): 2 µM; inhibition at 10 µM ([3]; read-out: Cherry-picked Hit (Suppl. Table 7)): > 50%; inhibition at 10 µM ([3]; read-out: Hit): > 50%"
CCCN(CCC)CCc1cccc2c1CC(=O)N2 [Ropinirole],0,-26,15,Q4,–,–
C#CCN(C)[C@H](C)Cc1ccccc1 [Selegiline],0,–,–,–,Q4,"Fibrin % cell toxicity [1, 13]: 0% and 1%"
"CCCc1nn(C)c2c(=O)[nH]c(-c3cc(S(=O)(=O)N4CCN(C)CC4)ccc3OCC)nc12 [Sildenafil, Sildenafil Citrate]",–,–,–,–,Q4,"Fibrin % inhibition [2, 15]: 22%; LPS % inhibition [5]: 20%; LPS % cell toxicity [4]: 0%"
O=C(O[C@H]1CN2CCC1CC2)N1CCc2ccccc2[C@@H]1c1ccccc1 [Solifenacin Succinate],0,–,–,–,Q4,"inhibition at 10 µM [2, 15]: -2%; inhibition at 10 µM [5, 16]: -4%"
OC[C@@H](O)[C@@H](O)[C@H](O)[C@@H](O)CO [Sorbitol],0,–,–,–,Q4,"Fibrin % cell toxicity [1, 13]: 1% and 0%"
C1CCN2C[C@@H]3C[C@@H](CN4CCCC[C@@H]34)[C@H]2C1 [Sparteine Sulfate],0,–,–,–,Q4,"inhibition at 10 µM [2, 15]: 7%; inhibition at 10 µM [5, 16]: 20%"
"CSc1ccc2c(c1)N(CCC1CCCCN1C)c1ccccc1S2 (stereo not shown) [Thioridazine hydrochloride, reference compound]",73,116,118,Q2,–,Activity [3]: fib/LPS
Cc1ccc(O)c([C@H](CCN(C(C)C)C(C)C)c2ccccc2)c1 [Tolterodine],0,-36,–,Q4,–,"inhibition at 10 µM ([5]; Rattus norvegicus, Microglia, read-out: LPS % inhibition): 15%"
C[C@@H](c1ncncc1F)[C@](O)(Cn1cncn1)c1ccc(F)cc1F [Voriconazole],0,–,–,–,–,"inhibition at 10 µM ([2]; primary microglia HTS, 10 μM, fibrin-stimulated, cell size >800 μm^2 as marker of activation): -42%; inhibition at 10 µM ([5]; Rattus norvegicus, Microglia, primary microglia HTS, 10 μM, LPS-stimulated, cell size >800 μm^2 as marker of activation; read-out: LPS % inhibition): 5%; Quadrant (FIG. 5b) ([3]; HTS of 1907 compounds, quadrant by fibrin and LPS inhibition): Q4"
